{"source": "patent US20260078121A1", "about": "“INHIBITORS OF ENL/AF9 YEATS AND FLT3” (Bridge Medicines, priority 2022, published 2026)", "key": {"[1]": {"target": "T1, FLT3 (Homo sapiens, UniProt P36888)", "T1 construct": "purchased Carna 08-154", "T1 sequence (P36888 27-993)": "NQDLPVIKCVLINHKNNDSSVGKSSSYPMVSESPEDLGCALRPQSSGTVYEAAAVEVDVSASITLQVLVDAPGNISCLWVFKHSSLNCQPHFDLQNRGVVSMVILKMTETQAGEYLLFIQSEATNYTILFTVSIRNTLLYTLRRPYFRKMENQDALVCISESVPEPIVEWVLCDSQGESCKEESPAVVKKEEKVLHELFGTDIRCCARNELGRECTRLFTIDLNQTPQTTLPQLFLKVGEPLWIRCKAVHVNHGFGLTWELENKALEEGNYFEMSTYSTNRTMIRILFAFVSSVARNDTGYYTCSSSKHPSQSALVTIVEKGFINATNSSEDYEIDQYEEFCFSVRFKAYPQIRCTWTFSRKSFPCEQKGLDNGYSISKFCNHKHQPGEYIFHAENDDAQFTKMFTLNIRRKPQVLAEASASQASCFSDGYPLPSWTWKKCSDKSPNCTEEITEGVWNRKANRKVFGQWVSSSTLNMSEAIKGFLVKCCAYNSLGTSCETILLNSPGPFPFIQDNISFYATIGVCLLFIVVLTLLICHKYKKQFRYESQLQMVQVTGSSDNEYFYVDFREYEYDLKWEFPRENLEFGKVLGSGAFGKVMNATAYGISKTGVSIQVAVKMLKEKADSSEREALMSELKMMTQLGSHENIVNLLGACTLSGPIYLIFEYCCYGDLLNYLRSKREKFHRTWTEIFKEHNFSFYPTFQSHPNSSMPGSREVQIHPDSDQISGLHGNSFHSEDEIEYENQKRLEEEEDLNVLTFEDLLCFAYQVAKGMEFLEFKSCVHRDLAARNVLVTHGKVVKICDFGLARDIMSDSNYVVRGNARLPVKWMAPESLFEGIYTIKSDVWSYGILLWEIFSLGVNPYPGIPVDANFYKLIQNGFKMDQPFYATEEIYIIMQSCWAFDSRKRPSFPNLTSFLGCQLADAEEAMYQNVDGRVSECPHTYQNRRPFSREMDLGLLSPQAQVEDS", "assay": "FLT3 Inhibition Assay", "type": "biochemical", "details": "FL Peptide 2 substrate, 30 min preincubation, 90 min at room temperature, Caliper EZ reader", "method": "Starting with a 10 mM stock solution, each test compound was serially diluted into 10 concentrations by 3-fold dilution using TECAN EVO200. 60 nL of each stock was transferred to a 384 plate using Echo550.\nSolution 1 was prepared as the table above and used to dilute the FLT3, ATP and FL2 stock to 0.9379 nM (1.33×), 400 μM (4×) and 6 μM (4×) respectively. The FLT3 solution (15 μL) at 25° C. was added to each well, shaken for 1 min and preincubated with test compound and controls for 30 min. To each well, 5 μL of ATP and FL-Peptide2 solutions, as prepared above, were added and the plate was shaken for 10 seconds, then spun briefly at 1000 rpm, then incubated for 90 minutes at room temperature. The plate was read on Caliper EZ reader, and the IC50 values were calculated using XLfit (equation below).\n[formula] • LumSample: Test compound signal • LumLC: Low control signal • LumHC: High control signal"}, "[2]": {"system": "MV4:11 (MLL-AF4 MLL) cells", "assay": "Cell viability assay (CellTiter-Glo), 12 days", "type": "cell-based", "details": "Homo sapiens, 288 h, MV4:11 cells, cells split on days 4 and 8, CellTiter-Glo readout, read-out: MV4:11, 12 Day IC50", "method": "Cell-based assays were used to assess the ability of test compounds to reduce cell viability in both MV4:11 (MLL-AF4 MLL) and K562 cells, which were cultured in Iscove's Modified Dulbecco's medium (Gibco, 12440061) containing 10% FBS. The assays were conducted over 12 days and the cells being split on days 4 and 8. Compound concentration response curves were performed in duplicate over the concentration range of 0.15 nM-30 μM. On day 0, the compounds or vehicle were plated in a 300 nL directly into 96 well cell culture plates (Corning, 3599) with 5000 cells/well in a volume of 100 μL. Blank wells received cell culture medium. Plates were incubated for 4 days at 37° C. with 5% CO2. On days 4 and day 8 the cells were split and incubated for a further 4 days whilst an aliquot of cells were taken for the CTG readout. For the cell splitting, 270 nL of compounds or DMSO was added to a new 96 well cell culture plate to which 90 μL of medium plus 10 μL of cells from the original assay plate (after mixing) or 100 μL of medium (Blank wells) was added. This was repeated on day 8.\nCell viability was assessed using the CellTiter-Glo® homogeneous luminescent assay kit (Promega, G9243), according to the manufacturer's instructions. This quantifies ATP, which indicates the presence of metabolically active cells. On days 4, 8 and 12, 20 μl of the remaining cell suspension was aspirated into 384-well plate (Corning 3570) to which an equal volume CellTiter-Glo reagent was. Plates were incubated for 10 minute incubation at RT prior to recording the luminescence signal using EnVision plate reader (PE, 2104). The resulting data were analyzed as follows:\nwhere vehicle are cells treated with 0.3% DMSO, Blank is culture medium. IC50 determinations were calculated by fitting the curve using XLfit (v5.3.1.3): Y=Bottom+(Top−Bottom)/(1+10^((Log IC50−X)*HillSlope))."}, "[3]": {"target": "T2, ENL YEATS domain (Homo sapiens, UniProt Q03111)", "T2 construct": "ENL Protein (6×HIS ENL YEATS Domain, EpiCypher, 15-0069); purchased EpiCypher 15-0069", "T2 sequence (Q03111 1-138 limits assumed)": "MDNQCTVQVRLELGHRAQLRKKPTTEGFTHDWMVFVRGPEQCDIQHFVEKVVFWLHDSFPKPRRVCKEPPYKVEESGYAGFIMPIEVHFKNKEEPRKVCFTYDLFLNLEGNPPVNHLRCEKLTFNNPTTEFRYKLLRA", "assay": "TR-FRET ENL Screening Assay", "details": "6×HIS ENL YEATS domain binding to biotinylated H3K9cr peptide (aa1-20)", "method": "Compounds of the invention were tested in a TR-FRET ENL Screening Assay. TR-FRET (time-resolved fluorescence energy transfer) can be used to quantify ENL YEATS domain binding to a crotonylated histone peptide (H3K9cr, aa1-20). Streptavidin-Europium (Eu) chelate binds the biotinylated peptide, while Anti-6×HIS ULight™ binds 6×HIS-ENL. When Eu chelate is excited at 320 nm, fluorescence resonance energy transfer (FRET) occurs if Eu and ULight are made proximal by ENL binding to the acyl-peptide. ULight emission (FRET) is measured at 665 nm and normalized to the Eu emission at 615 nm to reduce variability between wells.\nCompounds of the invention were dissolved in DMSO at a concentration of 3 mM with subsequent dilutions in assay buffer (50 mM HEPES PH 7.0, 150 mM NaCl, 0.05% BSA, 0.2% Pluronic F-127) such that the assay contained 1% DMSO. In a white 384 shallow well Microplate (Proxiplate-384 Plus, PerkinElmer, 6008280), 150 nL of compound or vehicle (1% DMSO in assay buffer) for the high control (HC) wells and 5 μL of 30 nM ENL Protein (6×HIS ENL YEATS Domain, EpiCypher, 15-0069) were combined and incubated 15 minutes at RT. Low control (LC) wells received 5 μL of assay buffer instead of ENL protein. Then 5 μL of 15 nM H3K9cr peptide (H3 aa1-20, biotinylated; EpiCypher, 12-0099) in assay buffer was added and incubated 30 minutes at RT. Finally, a 5 L mix of 45 nM Anti-6HIS ULight (PerkinElmer, TRF0105) and 1.5 nM Streptavidin-Europium Chelate (PerkinElmer, AD0060) were added and incubated for a further 30 minutes at RT. The TR-FRET signal (665 nm signal/615 nm signal×10,000) was measured using a PerkinElmer 2104 EnVision (Xenon Flash Lamp excitation, 320 nm±37.5 nm excitation filter, 407 nm cut off dichroic mirror, 615 nm±4.25 (Europium) nm and 665 nm+3.75 nM (ULight) emission filters). Compound concentration response curves were performed in duplicate over the concentration range of 0.15 nM-30 μM. The response at each compound concentration minus the LC value was converted to percent inhibition of the vehicle control group response (HC-LC)."}}}
{"smiles": "Cc1cc2cnc(NC(=O)c3ccc(-c4cn[nH]c4)cn3)cc2[nH]1", "note": "[Example 1, N-(2-methyl-1H-pyrrolo[3,2-c]pyridin-6-yl)-5-(1H-pyrazol-4-yl)picolinamide]", "values": [{"measurement": "IC50", "setting": "[1]", "result": 7, "unit": "nM"}, {"measurement": "IC50", "setting": "[2]", "result": 40, "unit": "nM"}]}
{"smiles": "CN1CCC[C@@H]1c1cc2cnc(NC(=O)c3ccc(-c4cn[nH]c4)cn3)cc2[nH]1", "note": "[Example 2, (R)-N-(2-(1-methylpyrrolidin-2-yl)-1H-pyrrolo[3,2-c]pyridin-6-yl)-5-(1H-pyrazol-4-yl)picolinamide]", "values": [{"measurement": "IC50", "setting": "[1]", "result": 7, "unit": "nM"}, {"measurement": "IC50", "setting": "[2]", "result": 19, "unit": "nM"}]}
{"smiles": "CN1CCC[C@H]1c1cc2cnc(NC(=O)c3ccc(-c4cn[nH]c4)cn3)cc2[nH]1", "note": "[Example 3, (S)-N-(2-(1-methylpyrrolidin-2-yl)-1H-pyrrolo[3,2-c]pyridin-6-yl)-5-(1H-pyrazol-4-yl)picolinamide]", "values": [{"measurement": "IC50", "setting": "[1]", "result": 13, "unit": "nM"}, {"measurement": "IC50", "setting": "[2]", "result": 83, "unit": "nM"}]}
{"smiles": "CN1CCC[C@@H]1c1cc2cnc(NC(=O)c3ccc(-c4cn[nH]c4)cc3F)cc2[nH]1", "note": "[Example 4, (R)-2-fluoro-N-(2-(1-methylpyrrolidin-2-yl)-1H-pyrrolo[3,2-c]pyridin-6-yl)-4-(1H-pyrazol-4-yl)benzamide]", "values": [{"measurement": "IC50", "setting": "[3]", "result": 67, "unit": "nM"}, {"measurement": "IC50", "setting": "[2]", "result": 119, "unit": "nM"}]}
{"smiles": "CN1CCC[C@@H]1c1cc2cnc(NC(=O)c3ccc(-c4cn[nH]c4)cc3)cc2[nH]1", "note": "[Example 5, (R)-N-(2-(1-methylpyrrolidin-2-yl)-1H-pyrrolo[3,2-c]pyridin-6-yl)-4-(1H-pyrazol-4-yl)benzamide]", "values": [{"measurement": "IC50", "setting": "[3]", "result": 46, "unit": "nM"}, {"measurement": "IC50", "setting": "[1]", "result": 274, "unit": "nM"}, {"measurement": "IC50", "setting": "[2]", "result": 79, "unit": "nM"}]}
{"smiles": "CN1CCCC[C@@H]1c1cc2cnc(NC(=O)c3ccc(-c4cn[nH]c4)cc3)cc2[nH]1", "note": "[Example 6, (R)-N-(2-(1-methylpiperidin-2-yl)-1H-pyrrolo[3,2-c]pyridin-6-yl)-4-(1H-pyrazol-4-yl)benzamide]", "values": [{"measurement": "IC50", "setting": "[3]", "result": 64, "unit": "nM"}, {"measurement": "IC50", "setting": "[2]", "result": 138, "unit": "nM"}]}
{"smiles": "CN1CCCC[C@@H]1c1cc2cnc(NC(=O)c3ccc(-c4cn[nH]c4)cn3)cc2[nH]1", "note": "[Example 7, (R)-N-(2-(1-methylpiperidin-2-yl)-1H-pyrrolo[3,2-c]pyridin-6-yl)-5-(1H-pyrazol-4-yl)picolinamide]", "values": [{"measurement": "IC50", "setting": "[2]", "result": 36, "unit": "nM"}]}
{"smiles": "COCc1n[nH]cc1-c1ccc(C(=O)Nc2cc3[nH]c([C@H]4CCCN4C)cc3cn2)cc1", "note": "[Example 8, (R)-4-(5-(methoxymethyl)-1H-pyrazol-4-yl)-N-(2-(1-methylpyrrolidin-2-yl)-1H-pyrrolo[3,2-c]pyridin-6-yl)benzamide]", "values": [{"measurement": "IC50", "setting": "[3]", "result": 179, "unit": "nM"}, {"measurement": "IC50", "setting": "[2]", "result": 357, "unit": "nM"}]}
{"smiles": "CN1CCC[C@@H]1c1cc2cnc(NC(=O)c3ccc(-c4c[nH]nc4F)cc3)cc2[nH]1", "note": "[Example 9, (R)-4-(5-fluoro-1H-pyrazol-4-yl)-N-(2-(1-methylpyrrolidin-2-yl)-1H-pyrrolo[3,2-c]pyridin-6-yl)benzamide]", "values": [{"measurement": "IC50", "setting": "[3]", "result": 73, "unit": "nM"}, {"measurement": "IC50", "setting": "[2]", "result": 176, "unit": "nM"}]}
